Assay results published in patent publication US20110230501A1, “PHARMACEUTICAL COMPOSITIONS FOR THE TREATMENT OF DIABETES MELLITUS” (IPCA Laboratories Ltd., priority 2008, published 2011).
Marks after values point to notes of the source that are not given here.

Tests used:
[1] = system: alloxan induced diabetic rats; assay: Alloxan induced diabetic rats: hydroxychloroquine with glimepiride; assay type: in vivo, Wistar rats; details: nine days, HCQ 160 or GLM 8 mg/kg/day p.o.
Method: (§1) Thirty Wistar rats weighing 150-200 g of either sex were divided into six groups consisting of five rats each. Experimental diabetes was induced in rats by injecting alloxan monohydrate intraperitonially at a dose of 90 mg/kg body weight. Rats with blood sugar level of 250-350 mg/dl, were considered as diabetic and employed in the study. Group 1 (normal control) consisted of normal rats that neither received alloxan monohydrate nor any drug. Group 2′ served as diabetic control which received vehicle orally. […] The study drugs were administered for nine days.

[2] = system: alloxan induced diabetic rats; assay: Alloxan induced diabetic rats: hydroxychloroquine with pioglitazone; assay type: in vivo, Wistar rats; details: nine days, HCQ 160 or PIO 10 mg/kg/day p.o.
Method: as §1, with “2” for “2′”

[3] = system: alloxan induced diabetic rats; assay: Alloxan induced diabetic rats: hydroxychloroquine with metformin; assay type: in vivo, Wistar rats; details: nine days, HCQ 160 or MET 500 mg/kg/day p.o.
Method: as §1, with “2” for “2′”

[4] = system: sulphonylurea-refractory patients with poorly controlled Type 2 diabetes; details: cited from earlier work
[5] = cited from earlier work
[6] = system: adults with rheumatoid arthritis; details: cited from earlier work
[7] = cited from earlier work; remark: listed apart in the source
[8] = patients treated with hydroxychloroquine

Row | Structure (SMILES) | Blood Glucose (mg/dl) Final [1] [mg/dL] | Body Weight (g) Final [1] [g] | Alb. (Albumin) [1] | Blood Glucose (% mean change) [1] | Body Weight (% mean change) [1] | HDL (High Density Lipoprotein) [1] | Hb (Hemoglobin) [1] | TC (Total Cholesterol) [1] | TG (Triglyceride) [1] | Urea [1] | Blood Glucose (mg/dl) Final [2] [mg/dL] | Body Weight (g) Final [2] [g] | Alb. (Albumin) [2] | Blood Glucose (% mean change) [2] | Body Weight (% mean change) [2] | HDL (High Density Lipoprotein) [2] | Hb (Hemoglobin) [2] | TC (Total Cholesterol) [2] | TG (Triglyceride) [2] | Urea [2] | also measured
1 | CCC1=C(C)CN(C(=O)NCCc2ccc(S(=O)(=O)NC(=O)N[C@H]3CC[C@H](C)CC3)cc2)C1=O [GLM, glimepiride] | 157.2 ± 17.64 | 170 ± 11.22 | 3.99 ± 0.24^a g/dl | (−46.83)^d % | (−3.40)^c % | 33 ± 1.58^b mg/dl | 14.04 ± 1.90^b g/dl | 169.40 ± 7.05^b mg/dl | 113.40 ± 3.64^b mg/dl | 30.26 ± 0.86^b mg/dl |  |  |  |  |  |  |  |  |  |  | Protein (T) (Total Protein) [1]: 5.78 ± 1.22^b g/dl
2 | CCc1ccc(CCOc2ccc(CC3SC(=O)NC3=O)cc2)nc1 (centres unmarked) [PIO, pioglitazone] |  |  |  |  |  |  |  |  |  |  | 175.8 ± 5.48 | 159.20 ± 11.21 | 4.03 ± 0.14^a g/dl | (−41.92)^a % | (−6.07)^a % | 35.8 ± 2.28^b mg/dl | 12.12 ± 1.27^b g/dl | 178.4 ± 2.70^b mg/dl | 117.2 ± 2.28^b mg/dl | 29.69 ± 1.37^b mg/dl | Protein (T) (Total Protein) [2]: 6.06 ± 1.43^b g/dl
3 | CN(C)C(=N)N=C(N)N [MET, metformin] |  |  |  |  |  |  |  |  |  |  |  |  |  |  |  |  |  |  |  |  | Blood Glucose (mg/dl) Final [3]: 148.8 ± 17.35 mg/dL; Body Weight (g) Final [3]: 173.8 ± 7.19 g; Alb. (Albumin) [3]: 4.52 ± 1.12^a g/dl; Blood Glucose (% mean change) [3]: (−47.58)^d %; Body Weight (% mean change) [3]: (−10.51) c %; HDL (High Density Lipoprotein) [3]: 34.40 ± 2.51^b mg/dl; Hb (Hemoglobin) [3]: 12.80 ± 1.25^b g/dl; Protein (T) (Total Protein) [3]: 6.75 ± 0.80^b g/dl; TC (Total Cholesterol) [3]: 170.40 ± 5.90^b mg/dl; TG (Triglyceride) [3]: 111.20 ± 5.93^b mg/dl; Urea [3]: 31.49 ± 1.81^b mg/dl; Blood Glucose (% mean change) ([3]; listed as Metformin): 47.58%
4 | CCN(CCO)CCCC(C)Nc1ccnc2cc(Cl)ccc12 (centres unmarked) [HCQ, hydroxychloroquine] | 263.80 ± 2.04 | 151.60 ± 13.16 | 4.03 ± 0.13^a g/dl | (−10.81)^c % | (−10.51)^b % | 35.80 ± 2.28^b mg/dl | 12.12 ± 1.27^a g/dl | 178.40 ± 2.70^c mg/dl | 117.20 ± 2.28^b mg/dl | 29.70 ± 1.37^b mg/dl | 263.80 ± 2.04 | 151.60 ± 13.16 | 4.03 ± 0.13^a g/dl | (−10.81)^c % | (−10.51)^b % | 35.80 ± 2.28^b mg/dl | 12.12 ± 1.27^a g/dl | 178.40 ± 2.70^c mg/dl | 117.20 ± 2.28^b mg/dl | 29.70 ± 1.37^b mg/dl | Blood Glucose (% mean change) ([2]; listed as hydroxychloroquine): −10.81%; Blood Glucose (mg/dl) Final [3]: 263.80 ± 2.04 mg/dL; Body Weight (g) Final [3]: 151.60 ± 13.16 g; Alb. (Albumin) [3]: 4.03 ± 0.13^a g/dl; Blood Glucose (% mean change) [3]: (−10.81)^c %; Body Weight (% mean change) [3]: (−10.51)^b %; HDL (High Density Lipoprotein) [3]: 35.80 ± 2.28^b mg/dl; Hb (Hemoglobin) [3]: 12.12 ± 1.27^a g/dl; TC (Total Cholesterol) [3]: 178.40 ± 2.70^c mg/dl; TG (Triglyceride) [3]: 117.20 ± 2.28^b mg/dl; Urea [3]: 29.70 ± 1.37^b mg/dl; Blood Glucose (% mean change) ([3]; listed as hydroxychloroquine): −10.81%; glycemic control [4]: improved glycemic control; red blood cell aggregation ([5]; humans, without prolonging the bleeding time): reduction; plasma viscosity as well as whole blood viscosity ([5]; postoperative patients): significant reduction; risk of diabetes [6]: reduced risk of diabetes; serum levels of cholesterol, triglycerides, and LDL ([7]; irrespective of concomitant steroid administration): high statistical association with low serum levels; HDL and % HDL [7, 8]: rise; decrease in serum levels of cholesterol [7, 8]: approximately 10%; Blood Glucose (% mean change) ([1]; listed as hydroxychloroquine): −10.81%
